From PubChem BioAssay AID190 (DTP/NCI, 2004)
Several values for one entry are separate records, joined by “and”; a condition that tells them apart may be missing. Equal entries are not always repeated. Inconclusive results and toxic doses are left out.

Tested on: AKR/Lw mice, AKR lymphoma ip, median survival T/C
Assay: NCI In Vivo Anticancer Drug Screen. Data for tumor model Lymphoma AKR (Transplanted) (intraperitoneal) in AKR/Lw mice
Conditions: endpoint: median survival time, higher = longer survival
Procedure: The antitumor activity of compounds was measured in mice bearing transplantable tumors. Survival or tumor size were measured and the results are expressed as the measurement made in the treated group (T) divided by the measurement made in the vehicle treated control group (C). The tumor model used in this assay is Lymphoma AKR (Transplanted) (intraperitoneal) in AKR/Lw mice

[1] = dose: 200.0 mg/kg/injection, schedule: Q01DX001 (ip), vehicle: Klucel (hydroxypropylcellulose) (HPC)
[2] = dose: 400.0 mg/kg/injection, schedule: Q01DX001 (ip), vehicle: Klucel (hydroxypropylcellulose) (HPC)
[3] = dose: 100.0 mg/kg/injection, schedule: Q01DX001 (ip), vehicle: Klucel (hydroxypropylcellulose) (HPC)
[4] = dose: 100.0 mg/kg/injection, schedule: Q01DX001 (ip), vehicle: saline
[5] = dose: 100.0 mg/kg/injection, schedule: Q04DX003 (ip), vehicle: Klucel (hydroxypropylcellulose) (HPC)
[6] = dose: 200.0 mg/kg/injection, schedule: Q01DX001 (ip), vehicle: saline
[7] = dose: 200.0 mg/kg/injection, schedule: Q04DX003 (ip), vehicle: Klucel (hydroxypropylcellulose) (HPC)

Q: With `C1CN1c1nc(N2CC2)nc(N2CC2)n1` as the compound, how does the T/C (dose: 0.01 mg/kg/injection, schedule: Q04DX003 (ip), vehicle: saline) read?
A: 102 % of control

Q: What about the T/C (dose: 0.02 mg/kg/injection, schedule: Q01DX009 (ip), vehicle: saline) of the same compound?
A: 115 % of control

Q: What about the T/C (dose: 0.02 mg/kg/injection, schedule: Q04DX003 (ip), vehicle: saline) of the same compound?
A: 111 % of control

Q: What about the T/C (dose: 0.03 mg/kg/injection, schedule: Q01DX009 (ip), vehicle: saline) of the same compound?
A: 109 % of control

Q: And the T/C (dose: 0.03 mg/kg/injection, schedule: Q04DX003 (ip), vehicle: saline)?
A: 86 % of control and 102 % of control

Q: And the T/C (dose: 0.05 mg/kg/injection, schedule: Q01DX009 (ip), vehicle: saline)?
A: 115 % of control

Q: And the T/C (dose: 0.05 mg/kg/injection, schedule: Q04DX003 (ip), vehicle: saline)?
A: 100 % of control

Q: What about the T/C (dose: 0.06 mg/kg/injection, schedule: Q01DX009 (ip), vehicle: saline) of the same compound?
A: 101 % of control and 109 % of control

Q: What about the T/C (dose: 0.06 mg/kg/injection, schedule: Q04DX003 (ip), vehicle: saline) of the same compound?
A: 93 % of control and 97 % of control and 107 % of control

Q: And the T/C (dose: 0.1 mg/kg/injection, schedule: Q04DX003 (ip), vehicle: saline)?
A: 113 % of control

Q: And the T/C (dose: 0.12 mg/kg/injection, schedule: Q01DX001 (ip), vehicle: saline)?
A: 106 % of control

Q: What about the T/C (dose: 0.2 mg/kg/injection, schedule: Q04DX003 (ip), vehicle: saline) of the same compound?
A: 115 % of control and 122 % of control

Q: What about the T/C (dose: 0.25 mg/kg/injection, schedule: Q01DX001 (ip), vehicle: saline) of the same compound?
A: 106 % of control and 111 % of control

Q: What about the T/C (dose: 0.3 mg/kg/injection, schedule: Q04DX003 (ip), vehicle: saline) of the same compound?
A: 121 % of control

Q: And the T/C (dose: 0.35 mg/kg/injection, schedule: Q04DX003 (ip), vehicle: saline)?
A: 120 % of control

Q: What about the T/C (dose: 0.37 mg/kg/injection, schedule: Q01DX001 (ip), vehicle: saline) of the same compound?
A: 105 % of control

Q: And the T/C (dose: 0.6 mg/kg/injection, schedule: Q01DX009 (ip), vehicle: saline)?
A: 116 % of control

Q: And the T/C (dose: 0.75 mg/kg/injection, schedule: Q01DX001 (ip), vehicle: saline)?
A: 105 % of control and 115 % of control

Q: What about the T/C (dose: 0.8 mg/kg/injection, schedule: Q04DX003 (ip), vehicle: saline) of the same compound?
A: 188 % of control

Q: What about the T/C (dose: 1.2 mg/kg/injection, schedule: Q01DX009 (ip), vehicle: saline) of the same compound?
A: 93 % of control

Q: What about the T/C (dose: 1.5 mg/kg/injection, schedule: Q01DX001 (ip), vehicle: saline) of the same compound?
A: 123 % of control

Q: What about the T/C (dose: 2.5 mg/kg/injection, schedule: Q01DX009 (ip), vehicle: saline) of the same compound?
A: 93 % of control

Q: What about the T/C (dose: 15.0 micrograms/kg/injection, schedule: Q01DX009 (ip), vehicle: saline) of the same compound?
A: 113 % of control

Q: And the T/C (dose: 25.0 micrograms/kg/injection, schedule: Q01DX009 (ip), vehicle: saline)?
A: 102 % of control

Q: What about the T/C (dose: 30.0 micrograms/kg/injection, schedule: Q01DX009 (ip), vehicle: saline) of the same compound?
A: 115 % of control

Q: And the T/C (dose: 50.0 micrograms/kg/injection, schedule: Q01DX009 (ip), vehicle: saline)?
A: 111 % of control

Q: What about the T/C (dose: 100.0 micrograms/kg/injection, schedule: Q01DX009 (ip), vehicle: saline) of the same compound?
A: 116 % of control

Q: What about the T/C (dose: 120.0 micrograms/kg/injection, schedule: Q01DX009 (ip), vehicle: saline) of the same compound?
A: 107 % of control

Q: And the T/C (dose: 250.0 micrograms/kg/injection, schedule: Q01DX009 (ip), vehicle: saline)?
A: 105 % of control

Q: Which results are given for `OCC1=C(CO)C2(Cl)C(Cl)=C(Cl)C1(Cl)C2(Cl)Cl`?
A: T/C [1]: 95 % of control; T/C [2]: 91 % of control

Q: With `CCOC(=O)/C(C(C)=O)=C(/O)c1ccc(OC(F)(F)C(F)Cl)cc1OC(F)(F)C(F)Cl.CCOC(=O)/C(C(C)=O)=C(/O)c1ccc(OC(F)(F)C(F)Cl)cc1OC(F)(F)C(F)Cl.[Cu]` (configuration not stated) as the compound, how does the T/C [3] read?
A: 100 % of control

Q: What about the T/C [1] of the same compound?
A: 90 % of control

Q: Which results are given for `N=Cc1c(O)[nH]c(=O)[nH]c1=O`?
A: T/C [4]: 105 % of control; T/C [5]: 100 % of control; T/C [6]: 119 % of control; T/C [7]: 93 % of control; T/C (dose: 400.0 mg/kg/injection, schedule: Q01DX001 (ip), vehicle: saline): 88 % of control

Q: Which results are given for `Cc1ccc(OS(=O)(=O)c2ccc([N+](=O)[O-])cc2)cc1`?
A: T/C (dose: 90.0 mg/kg/injection, schedule: Q01DX001 (ip), vehicle: Klucel (hydroxypropylcellulose) (HPC)): 102 % of control; T/C (dose: 135.0 mg/kg/injection, schedule: Q01DX001 (ip), vehicle: Klucel (hydroxypropylcellulose) (HPC)): 102 % of control; T/C [1]: 100 % of control; T/C (dose: 300.0 mg/kg/injection, schedule: Q01DX001 (ip), vehicle: Klucel (hydroxypropylcellulose) (HPC)): 93 % of control

Q: Which results are given for `OCC#CC#CCO`?
A: T/C [4]: 100 % of control; T/C [6]: 92 % of control

Q: What does the source list for `Brc1cc(Br)c(-c2c(Br)cc(Br)cc2Br)c(Br)c1`?
A: T/C [3]: 103 % of control; T/C [1]: 100 % of control; T/C [2]: 96 % of control

Q: Which results are given for `CCCCCCCCCCCCCCCC(=O)N(CCCN)CCCCCCCCCN(CCCN)C(=O)CCCCCCCCCCCCCCC`?
A: T/C (dose: 12.5 mg/kg/injection, schedule: Q01DX009 (ip), vehicle: saline): 100 % of control; T/C (dose: 25.0 mg/kg/injection, schedule: Q01DX009 (ip), vehicle: saline): 92 % of control; T/C (dose: 50.0 mg/kg/injection, schedule: Q01DX009 (ip), vehicle: saline): 107 % of control; T/C (dose: 50.0 mg/kg/injection, schedule: Q04DX003 (ip), vehicle: other): 95 % of control; T/C [4]: 108 % of control; T/C (dose: 100.0 mg/kg/injection, schedule: Q04DX003 (ip), vehicle: other): 95 % of control

Q: Which T/C [3] does the source give for `CCOC(=O)N(CC)c1ccccc1` here?
A: 109 % of control

Q: And the T/C [5]?
A: 113 % of control

Q: And the T/C [1]?
A: 111 % of control

Q: And the T/C [7]?
A: 94 % of control

Q: And the T/C [2]?
A: 100 % of control

Q: What about the T/C (dose: 400.0 mg/kg/injection, schedule: Q04DX003 (ip), vehicle: Klucel (hydroxypropylcellulose) (HPC)) of the same compound?
A: 98 % of control

Q: For `CS(=O)(=O)OCCCNCCCOS(C)(=O)=O`, which T/C (dose: 1.6 mg/kg/injection, schedule: Q01DX009 (ip), vehicle: saline) is on record?
A: 94 % of control

Q: And the T/C (dose: 1.9 mg/kg/injection, schedule: Q01DX009 (ip), vehicle: saline)?
A: 96 % of control

Q: And the T/C (dose: 2.0 mg/kg/injection, schedule: Q01DX009 (ip), vehicle: saline)?
A: 107 % of control

Q: And the T/C (dose: 3.1 mg/kg/injection, schedule: Q01DX009 (ip), vehicle: saline)?
A: 88 % of control and 100 % of control and 115 % of control

Q: What about the T/C (dose: 3.8 mg/kg/injection, schedule: Q01DX009 (ip), vehicle: saline) of the same compound?
A: 106 % of control

Q: What about the T/C (dose: 4.0 mg/kg/injection, schedule: Q01DX009 (ip), vehicle: saline) of the same compound?
A: 103 % of control

Q: And the T/C (dose: 6.2 mg/kg/injection, schedule: Q01DX009 (ip), vehicle: saline)?
A: 102 % of control

Q: And the T/C (dose: 6.3 mg/kg/injection, schedule: Q01DX009 (ip), vehicle: saline)?
A: 97 % of control

Q: What about the T/C (dose: 8.0 mg/kg/injection, schedule: Q01DX009 (ip), vehicle: saline) of the same compound?
A: 100 % of control

Q: What about the T/C (dose: 12.5 mg/kg/injection, schedule: Q01DX001 (ip), vehicle: saline) of the same compound?
A: 124 % of control

Q: And the T/C (dose: 12.5 mg/kg/injection, schedule: Q04DX003 (ip), vehicle: saline)?
A: 102 % of control and 106 % of control

Q: What about the T/C (dose: 25.0 mg/kg/injection, schedule: Q01DX001 (ip), vehicle: saline) of the same compound?
A: 110 % of control

Q: What about the T/C (dose: 25.0 mg/kg/injection, schedule: Q04DX003 (ip), vehicle: saline) of the same compound?
A: 106 % of control and 112 % of control

Q: And the T/C (dose: 27.0 mg/kg/injection, schedule: Q04DX003 (ip), vehicle: water)?
A: 113 % of control

Q: And the T/C (dose: 45.0 mg/kg/injection, schedule: Q01DX001 (ip), vehicle: saline)?
A: 112 % of control

Q: And the T/C (dose: 60.0 mg/kg/injection, schedule: Q01DX009 (ip), vehicle: saline)?
A: 100 % of control and 123 % of control

Q: And the T/C (dose: 75.0 mg/kg/injection, schedule: Q01DX001 (ip), vehicle: saline)?
A: 108 % of control

Q: And the T/C (dose: 108.0 mg/kg/injection, schedule: Q04DX003 (ip), vehicle: water)?
A: 192 % of control
